“Also recorded” adds a separate entry of the source.
Tested on: IC-21 murine peritoneal macrophages
Assay: Toxicity assay, Cell Counting Kit-8 viability
Assay type: cell-based, mouse
Conditions: 37° C. two days, CCK-8
Procedure: FIG. 10. […] IC-21 murine peritoneal macrophages were seeded at a density of 2.0×10^4 per well in a 96-well plate. Differing concentrations of compound JE ranging from […] were diluted in DMSO and added to the appropriate wells. Cells were incubated at 37° C. for 48 hours. After the incubation period, Cell Counting Kit-8 (Sigma-Aldrich) was used for quantification of viable cells. CCK-8 solution was added to each well and the plate was incubated at 37° C. for two hours. Levels of water-soluble tetrazolium salt reduced to formazan were then measured at a wavelength of 450 nm. Cell viability was found as a percentage by dividing each absorbance value by the negative control.
To test if JE has any toxicity, we first incubated murine macrophages with JE at different concentrations at 37° C. for two days, and determined viability of the cells. […] Further we injected the JE at 50 μM twice daily via I.P. for 3 or 5 days and then determined ALT levels in sera and examined the morphology in key organs, liver, kidney, spleen, intestines etc.

CC(=O)O[C@@H]1CC[C@H]2[C@H]3CC[C@H]4CC(F)(F)CC[C@]4(C)[C@H]3CC[C@]12C [JE, 3,3-Difluoro-5-alpha-androstan-17-beta-yl acetate]
viability of the cells (JE 50 μM or below): high viability; also recorded: did not show significant reduction
viability of the cells (JE >100 μM): reduced the viability
